Results: patent US6995283B2, “Benzophenones as inhibitors of reverse transcriptase” (priority 2001, dated 2006)
≈ marks a conversion by molar mass, not a printed value. Counter-ions that a name gives are not always drawn. Like-named read-outs stand apart in the source and are kept apart here. One block for each compound: values may come before it.

How the values were obtained:
HIV-1 wild type virus = assay: Anti-HIV activity of parent compounds, wild type virus (Table 1; HeLa-CD4-LTR-β-gal cell assay); type: cell-based; conditions: Human immunodeficiency virus 1, read-out: Wt
Method: (§1) The HeLa cell assay was performed according to a modifcation of Kimpton J. and Emerman M., Detection of replication-competent and pseudotyped human inmmunodeficiency virus with a sensitive cell line on the basis of activation of an integrated β-galactosidase gene, J. Virol. 66:2232-2239 (1992), in which HIV-1 infection is detected by the activation of an HIV-LTR driven β-galactosidase reporter that is integrated into the genome of a CD4^+ HeLa cell line. Quantitation of β-galactosidase is achieved by measuring the activation of a chemiluminescent substrate (Tropix). The concentration of each compound required to inhibit 50% (IC50) of the HIV-1 induced β-galactosidase signal, relative to untreated controls, was determined for each isogenic, recombinant virus.
(§2) HeLa-CD4-LTR-β-gal cells are propagated in DMEM containing 10% fetal bovine serum+0.2 mg/ml geneticin+0.1 mg/ml hygromycin B. Cells are split by standard trypsinization when confluency reaches 80% (roughly every 2 to 3 days).
(§3) DNA encoding the HIV-1 reverse transcriptase was subcloned from a M13 phage into a general shuttle vector, pBCSK+, as a ˜1.65 kbp EcoRI/HindIII ended DNA fragment. The HIV DNA insert of the resulting plasmid, pRT2, was completely sequenced on both strands prior to use in site directed mutagenesis experiments. Specific amino acid replacements were made using Stratagene Quick Change reagents and mutagenic oligonucleotides from Oligos. […]
(§4) Mutant HIV-1 strains were isolated by a modified Recombinant Virus Assay (Kellamn P. and Larder B., Recombinant virus assay: a rapid, phenotypic assay for assessment of drug susceptibility of human immunodeficiency virus type 1 isolates, Antimicrobial Agents and Chemotherapy, 38:23-30,1994). […] Transfected cell cultures were expanded and monitored until syncitia formation and CPE were extensive. […]
(§5) HIV-1 virus stocks must be titered in the MAGI assay system to establish the appropriate infecting dose. The endpoint for this assay is relative light units (RLUs), and titer is recorded as RLUs/ml. […]

Nev-R mutant virus = assay: Anti-HIV activity of parent compounds, Nev-R mutant virus (Table 1; HeLa-CD4-LTR-β-gal cell assay); type: cell-based, HIV-1; conditions: Human immunodeficiency virus 1, read-out: Nev-R
Method: as §1, §2, §3, §4, §5

[1] = Oral bioavailability in male Sprague-Dawley rats; type: in vivo, Sprague-Dawley (CD) rat; conditions: for AUC(0-inf): rat, plasma
Method: Methods used were generally as described in Example 53, with the following modifications: Sample Collection—In addition to anticoagulant (EDTA), an enzyme inhibitor cocktail containing 50 μL of 100 mM AEBSF (4-(2-aminoethyl)benzenessulfonylfluoride HCl, CalBioChem, cat. no. 101500); 200 mM Benzamide(CalBioChem, cat. no. 199001); and 200 mM EACA (Epislon Amino-n-caproic acid, CalBioChem cat. no. 1381) in FTA Hemaglutionation Buffer (Becton Dickson, cat. no. 4311248) per 1 mL of blood was added to rat blood samples at the time of collection.
HPLC-MS-MS Conditions—Chromatography was performed on a Phenomenex Aqua C18 HPLC Mercury Cartridge (3-micron particle size, 20 mm×2 mm id) or Luna C18 column (50×2 mm).

Solubility = type: physicochemical
Method: A stir bar was put in the vial. The vials were closed with caps and placed on stir plate. […] After equilibration, the samples were centrifuged. An accurate aliquot of clear solution was transferred to a HPLC vial by micropipette. The solubility was determined by HPLC with UV detector and against standard.

[2] = Pharmacokinetic studies in male beagle dogs; type: in vivo, beagle dog
Method: Compound 34 (634A in tables and on plots) was dosed as a solid as well as in solution form to male beagle dogs according to the following protocol. Plasma samples were analyzed using the following methods:
Blood samples from the test animals were drawn at periodic intervals, before, and after administration of the test articles. The samples were dispensed into chilled (˜+4° C.) blood tubes containing EDTA anticoagulant which were stored “on ice” (˜+4° C.) prior to centrifugation and separation of the plasma fractions. The plasma samples were transferred to frozen storage (−20° C.) within 30 minutes of blood sampling.
The plasma samples were thawed at room temperature, vortex-mixed for 10 seconds, and 100 μL aliquots transferred to 96-well micro-plates. […]
The supernatant fractions of the wells were transferred to a fresh micro-plate and then evaporated to dryness at 37° C. under a stream of (O2-free) nitrogen. The well residues were reconstituted in 100 μL volumes of acetonitrile:water:acetic acid (40:59.9:0.1 v/v/v) and 20 μL volumes were analyzed by HPLC-MS-MS. […]
The measurement of signal peaks areas, calibration and quantification were carried out using the Turbo-Quan V1.5 (Sciex Inc.) data acquisition and processing software (DAQ) suite. […]

solubility (in words) (Solubility; in comparison with compound 40): improved solubility
SMILES: CCC(=O)NS(=O)(=O)c1ccc(NC(=O)COc2ccc(Cl)cc2C(=O)c2cc(Cl)cc(C#N)c2)c(C)c1 [Compound 41, 2-[4-chloro-2-(3-chloro-5-cyanobenzoyl)phenoxy]-N-{2-methyl-4-[(propionylamino)sulfonyl]phenyl}acetamide]

appearance of active inhibitor compound 40 in plasma after administration [2]: appears in the plasma
bioavailability after oral administration (in words) ([2]; oral): excellent bioavailability
appearance of active inhibitor compound 40 in plasma after administration [1]: appears in the plasma
bioavailability after oral administration (in words) ([1]; oral, in comparison to the parent compound 40): improved bioavailability
solubility (Solubility; water, thermodynamic from solid, water, Amorphous, read-out: Solubility): > 100 mg/mL
solubility (Solubility; water, thermodynamic from solid, water, Crystal Form 1, read-out: Solubility): 92 mg/mL
solubility (Solubility; water, thermodynamic from solid, water, Crystal Form 4, read-out: Solubility): 2.5 mg/mL
solubility (Solubility; water, thermodynamic from solid, water, Crystal Form 9, read-out: Solubility): > 100 mg/mL
solubility (Solubility; water, thermodynamic from solid, water, Crystal Form 10, read-out: Solubility): > 100 mg/mL
solubility (Solubility; water, thermodynamic from solid, water, Crystal Form 12, read-out: Solubility): > 100 mg/mL
SMILES: CCC(=O)NS(=O)(=O)c1ccc(NC(=O)COc2ccc(Cl)cc2C(=O)c2cc(Cl)cc(C#N)c2)c(C)c1 [Compound 34, 2-[4-chloro-2-(3-chloro-5-cyanobenzoyl)phenoxy]-N-{2-methyl-4-[(propionylamino)sulfonyl]phenyl}acetamide, Sodium Salt]

solubility (Solubility; water, Crystal Form 2): 0.7 mg/mL
SMILES: CCC(=O)NS(=O)(=O)c1ccc(NC(=O)COc2ccc(Cl)cc2C(=O)c2cc(Cl)cc(C#N)c2)c(C)c1.[Ca] [Calcium salt, 2-[4-chloro-2-(3-chloro-5-cyanobenzoyl)phenoxy]-N-{2-methyl-4-[(propionylamino)sulfonyl]phenyl}acetamide, Calcium Salt, Form 2]

The next lines start with the compound.

SMILES: Cc1cc(S(N)(=O)=O)ccc1NC(=O)COc1ccc(Cl)cc1C(=O)c1cc(Cl)cc(C#N)c1 [Compound 40, N-[4-(aminosulfonyl)-2-methylphenyl]-2-[4-chloro-2-(3-chloro-5-cyanobenzoyl)phenoxy]acetamide]
IC50 (HIV-1 wild type virus): 0.5 to 1.8 nM
IC50 (Nev-R mutant virus): 0.4 to 1.2 nM
Mean Exposures of 40 Fapp ([1]; free acid, Amorph., PO (soln) 1 mg/kg, DMSO:Tween-80:5% Mannitol (20:0.1:79.9)): 7%
AUC(0-inf) ([1]; free acid, Amorph., IV 1 mg/kg, PEG400:Solutol:Water (30:20:50), read-out: Mean Exposures of 40 AUC0-∞): 1740 ± 363 ng·h/mL
AUC(0-inf) ([1]; free acid, Amorph., PO (soln) 1 mg/kg, DMSO:Tween-80:5% Mannitol (20:0.1:79.9), n = 1, read-out: Mean Exposures of 40 AUC0-∞): 128 ng·h/mL
solubility (Solubility; fassgf or other biorelevant, thermodynamic from solid, SIF, Crystal Form 1, read-out: Solubility): 0.0029 mg/mL (≈ 5.59 µM)

SMILES: Cc1cc(S(N)(=O)=O)ccc1NC(=O)COc1ccc(Cl)cc1C(=O)c1cc(F)cc(C(F)(F)F)c1 [Compound 71]
IC50 (HIV-1 wild type virus): 0.1 to 28 nM
IC50 (Nev-R mutant virus): 0.4 to 14 nM

SMILES: Cc1cc(S(N)(=O)=O)ccc1NC(=O)COc1ccc(Cl)cc1C(=O)c1cc(C#N)cc(C(F)(F)F)c1 [Compound 58]
IC50 (HIV-1 wild type virus): 2.4 nM
IC50 (Nev-R mutant virus): 0.9 nM
